{"source": "patent US8912142B2", "about": "“Method of regulating proliferation and differentiation of keratinocyes” (The Medical Research, Infrastructure and Health Services …, priority 2009, dated 2014)", "key": {"[1]": {"tested_on": "primary keratinocytes transfected with IGFBP7 siRNA", "assay": "ERK inhibition, proliferation of IGFBP7-silenced primary keratinocytes", "format": "cell-based, human", "conditions": "120 μM for 72 hours, medium refreshed every 24 hours", "experimental": "FIG. 17 is a histogram depicting the effect of ERK inhibition on primary keratinocytes proliferation in IFGBP7-silenced cells and control cells. Primary keratinocytes which were transfected with IGFBP7 siRNA were treated with 120 μM PD98059 (ERK inhibitor) for 72 hours, while refreshing the medium every 24 hours. Note that ERK inhibition attenuates cell proliferation induced by IGFBP7 down-regulation (p<0.01).\nTo further investigate the involvement of ERK in IGFBP7-mediated cell proliferation primary keratinocytes which were transfected with IGFBP7 siRNA were treated with the ERK inhibitor PD98059 (120 μM for 72 hours, while refreshing the medium every 24 hours)."}, "[2]": {"tested_on": "primary human keratinocytes", "assay": "MTT assay (cell viability) in primary keratinocytes", "format": "cell-based", "experimental": "(§1) FIGS. 3A-F depict viability and proliferation assays of keratinocytes. […] Data represent mean values±SD of three independent experiments. Asterisk, p<0.01 compared with control cells. FIG. 3B—HaCat cells stably expressing an IGFBP7-specific shRNA or a control shRNA were assessed using the BrDu assay (stable transfection). Data represent mean values±SD of three independent experiments. Asterisk, p<0.01 compared with control cells. FIGS. 3C and D—KRT6a mRNA and protein levels were assessed by qRT-PCR (FIG. 3C) and immunoblotting (FIG. 3D) in HaCat cells stably expressing an IGFBP7-specific shRNA or a control shRNA. FIGS. 3E and F—Primary keratinocytes were transiently transfected with IGFBP7-specific siRNA (IGFBP7) or with control siRNA (control) and assessed using the MTT assay (FIG. 3E; 24 and 48 hours post transfection) and the BrDu assay (FIG. 3F; 24 hours post transfection). Data represent mean values±SD of three independent experiments (Asterisk, p<0.01 compared with control cells).\n(§2) FIGS. 6A-C depict cell viability and proliferation assays of primary keratinocytes which exogenously express IGFBP7. […] FIGS. 6A-B—Cell viability and proliferation were assessed using the MTT (FIG. 6A) and BrDU (FIG. 6B) assays. FIG. 6C—Apoptosis was quantitated by TUNEL assay. […]"}, "[3]": {"tested_on": "primary human keratinocytes", "assay": "BrDu incorporation assay (proliferation) in primary keratinocytes", "format": "cell-based", "experimental": "as §1, with “Data represent mean values±SD of three independent experiments (Asterisk, p<0.01 compared with control cells).” left out\nas §2\nThe incorporation rate of BrdU was determined by Cell Proliferation ELISA BrdU colorimetric kit (Roche, Mannheim, Germany) according to manufacturer's protocol. Absorbance at 450 nm was measured using an ELISA reader. […]"}, "[4]": {"tested_on": "primary human keratinocytes", "assay": "TUNEL apoptosis assay in primary keratinocytes", "format": "cell-based", "experimental": "FIGS. 4A-C depict apoptosis assays in HaCat or primary keratinocyte cells. FIGS. 4A-B—HaCat cells stably expressing IGFBP7-specific (IGFBP7) or control shRNA (Co) (scrambled control), were exposed to 10 ng/μl of recombinant tumor necrosis factor-alpha (TNF-α) (+) or vehicle (−) 24 hours after transfection. Apoptosis was measured using the TUNEL assay (FIG. 4A) or the Annexin V assay (FIG. 4B). FIG. 4C—Primary keratinocytes were transiently transfected with IGFBP7-specific siRNA (IGFBP7) or with scrambled control siRNA (Co) and exposed to 10 ng/μl of recombinant TNF-α (+) or vehicle (−). Apoptotic activity was assessed by the TUNEL assay. All experiments were repeated three times. Results are provided as mean values±SD. […]\nas §2\nApoptosis was assessed using the TUNEL kit (Roche, Mannheim, Germany) according to the manufacturer's protocol. […] More than 1,000 cells were counted for each slide and examined under a fluorescent microscope Zeiss Axioscope 2 (Carl Zeiss MicroImaging, Inc., Thornwood, N.Y.). […] Differences in apoptotic activity were considered significant at p-values <0.01 calculated using a standard Student's t-test."}, "IGFBP7": {"tested_on": "IGFBP7", "assay": "qRT-PCR of IGFBP7 mRNA in organotypic skin equivalents", "format": "cell-based, human", "experimental": "RNA was extracted from cultured cells using an RNA extraction kit (Roche Mannheim, Germany). cDNA was synthesized from 500 ng of total RNA using the Reverse-iT first strand synthesis kit (ABgene, Epson, UK) and random hexamers. cDNA PCR amplification was carried out using the SYBR Green JumpStart Taq ReadyMix (Sigma-Aldrich, St Louis, Mo., USA) on a M×3000 p/5 p multifilter system (Stratagene, Cedar Creek, Tex., USA) with gene-specific intron-crossing oligonucleotide pairs listed in Table 2 below. To ensure the specificity of the reaction conditions, at the end of the individual runs, the melting temperature (Tm) of the amplified products was measured to confirm its homogeneity. […] Each sample was analyzed in triplicate. For quantification, standard curves were obtained using serially diluted cDNA amplified in the same real-time PCR run. […] After the quantification procedure, the products were resolved by 2.5% agarose gel electrophoresis to confirm that the reaction had amplified DNA fragments of expected size.\n(§3) To confirm the physiological relevance of these findings in keratinocyte monolayers, the present inventors suppressed the expression of IGFBP7 by RNA interference in skin organotypic cultures. […] Punch biopsies were also taken at day 7 for RNA extraction, transcribed to cDNA and analyzed by qRT-PCR for IGFBP7 mRNA expression. […]"}, "[5]": {"tested_on": "three-dimensional organotypic skin equivalents", "assay": "H&E staining of organotypic skin equivalents", "format": "cell-based, human", "conditions": "day 14", "experimental": "The present inventors used a three-dimensional organotypic cell culture system to model the role of decreased IGFBP7 expression in the pathogenesis of psoriasis (FIGS. 18 and 19). In this model system, keratinocytes are grown at the air liquid interface on a support consisting of collagen and fibroblasts for up to 2 weeks. During this time, keratinocytes fully differentiate, forming a multilayered, cornified epithelium which faithfully replicates most physiological aspects of normal epidermal biology. The present inventors established the conditions necessary to grow such three-dimensional skin equivalents. Histological and immunohistochemical analyses confirmed the existence of a legitimate differentiation program in these cultures. […] At day 12, the stratum corneum was thickened and desquamation, i.e., detachment of cornified keratinocytes, occurred (FIG. 20).\nas §3, with “expression. IGFBP7 specific siRNA suppressed IGFBP7 expression to less than 60% of the normal level in skin equivalents as measured at day 7 (data not shown).” for “expression.”"}, "HaCat cells": {"tested_on": "HaCat cells", "assay": "MTT assay (cell viability) in HaCat cells", "format": "cell-based, human", "conditions": "siRNA, cultured 24 and 72 hours", "experimental": "as §1\nThe MTT test is based on the selective ability of living cells to reduce the yellow salt MTT (3-(4,5-dimethylthiazolyl-2)-2,5-diphenyltetrazolium bromide) (Sigma, Aldrich St Louis, Mo., USA) to a purple-blue insoluble formazan precipitate. […] The supernatants were collected and then scanned with an ELISA reader Zenyth 200 (Anthos Labtec, Cambridge, UK) at 560 nm."}, "[6]": {"tested_on": "primary keratinocyte cells", "assay": "Effect of rIGFBP7 on differentiation of primary keratinocytes", "format": "cell-based, human", "conditions": "data not shown", "text": "To confirm the involvement of IGFBP7 in the regulation of keratinocyte proliferation and differentiation, the present inventors examined the effect of recombinant human IGFBP7 polypeptide (rIGFBP7) on primary keratinocyte cells."}, "[7]": {"tested_on": "human skin grafted onto beige-SCID mice injected with NK/T cells from psoriatic patients", "assay": "Chimeric human-mouse psoriasis model, histology", "format": "in vivo", "conditions": "intralesional, histology two weeks after the treatment", "experimental": "To assess the effect of IGFBP7 on psoriasis, the present inventors used a chimeric mouse model (FIG. 23). The model is based on the use of normal skin from healthy controls that is grafted onto beige-SCID mice. The grafts are then injected with NK/T cells isolated from psoriatic patients (Gilhar et al., 2002).\nIn the experimental system used herein, two weeks after NK injection (6 weeks after engraftment) 3 groups of mice were treated with intralesional PBS, topical dexamethasone and intralesional IGFBP7. The effect of the treatment was monitored by histology analysis two weeks after the treatment (8 weeks after engraftment)."}, "[8]": {"conditions": "1.8 μg/μl rIGFBP7 for 72 hours, then 12 hours in medium lacking rIGFBP7"}}, "note": "d = 2'-deoxy (DNA); r = 2'-OH (RNA)", "data": [{"compound": "COc1cccc(-c2cc(=O)c3ccccc3o2)c1N", "note": "[PD98059]", "values": [{"measurement": "keratinocyte proliferation induced by IGFBP7 down-regulation", "setting": "[1]", "result": "prevented the induction of keratinocyte proliferation"}]}, {"compound": "IGFBP7 specific siRNA: siRNA IGFBP7 duplex of SEQ ID NO:32 and SEQ ID NO:33 (Sigma-Proligo) (chain 1 GCUGGUAUCUCCUCUAAGUTT; chain 2 ACUUAGAGGAGAUACCAGCTT; sugars from the 5' end r19 d2, backbone not given here)", "values": [{"measurement": "cell viability (MTT assay)", "setting": "[2]; primary keratinocytes, 24 and 48 hours post transfection", "result": "more viable and proliferative"}, {"measurement": "cell proliferation (BrDu assay)", "setting": "[3]; primary keratinocytes, 24 hours post transfection", "result": "more viable and proliferative"}, {"measurement": "TNF-α-induced cell apoptosis (TUNEL assay)", "setting": "[4]; primary keratinocytes transiently transfected, 10 ng/μl recombinant TNF-α", "result": "prevented TNF-α-induced cell apoptosis"}, {"measurement": "duration of the siRNA effect", "setting": "IGFBP7; organotypic skin model, data not shown", "result": "at least 7 days"}, {"measurement": "IGFBP7 expression relative to normal level", "setting": "IGFBP7; skin equivalents, day 7, data not shown", "result": "less than 60%"}, {"measurement": "H&E histological changes", "setting": "[5]", "result": "abnormal stratification, absence of granular layer, parakeratosis and marked hyperkeratosis"}, {"measurement": "cell viability (MTT assay)", "setting": "HaCat cells", "result": "more viable and proliferative"}]}, {"compound": "rIGFBP7: human recombinant IGFBP7 polypeptide (R&D systems Inc. Catalogue No. 1334-B7-025)", "values": [{"measurement": "viable cell counts (MTT assay)", "setting": "[2]; [8]", "result": "decrease in viable cell counts"}, {"measurement": "cell proliferation (BrDu assay)", "setting": "[3]; [8]", "result": "decrease in cell proliferation"}, {"measurement": "keratinocyte apoptosis (TUNEL assay)", "setting": "[4]; 1.8 μg/μl rIGFBP7 for 72 hours, then 12 hours in medium lacking rIGFBP7, TNF-α-mediated", "result": "increase in keratinocyte apoptosis"}, {"measurement": "cell differentiation", "setting": "[6]", "result": "lacked significant effect on cell differentiation"}, {"measurement": "mice with features of psoriasis on histology", "setting": "[7]", "result": "one animal only showed features of psoriasis on histology"}, {"measurement": "mice with full recovery on histology", "setting": "[7]", "result": "three mice showed full recovery"}, {"measurement": "mice with partial recovery on histology", "setting": "[7]", "result": "one mouse recovered partially (50%)"}, {"measurement": "mononuclear infiltrating cells in the dermis", "setting": "[7]", "result": "could still be seen in the dermis albeit in smaller numbers"}]}]}
